ChEMBL document CHEMBL1201862, “PubChem BioAssay data set” (2004)
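Following 48 hours of exposure in 96-well plates, responses at five concentrations were used to interpolate endpoints linearly. GI50 marks 50% less growth.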 The source made the active and inactive calls. Cut-off read from the data, not from the text of the source: active = GI50 up to about 1.1 µM and inactive = higher.

Columns and labels:
Assay in all cases: growth of human tumour cells (NCI), 48 h
[1] = system: KM-20L2
[2] = system: LXFL 529
[3] = system: SR
[4] = system: MOLT-4
[5] = system: OVCAR-8
[6] = system: M14
[7] = system: EKVX
[8] = system: SK-OV-3
[9] = system: NCI-H23
[10] = system: HOP-92
[11] = system: SF-539
[12] = system: SW-620
[13] = system: RXF 393
[14] = system: XF498
[15] = system: HCT-116
[16] = system: UO-31
[17] = system: UACC-257
[18] = system: TK-10

SMILES | GI50 [1] | GI50 [2] | GI50 [3] | GI50 [4] | GI50 [5] | GI50 [6] | GI50 [7] | GI50 [8] | GI50 [9] | GI50 [10] | GI50 [11] | GI50 [12] | GI50 [13] | GI50 [14] | GI50 [15] | GI50 [16] | GI50 [17] | GI50 [18]
COc1cc([C@@H]2OCC3C(c4ccc5c(c4)OCO5)OCC32)cc(OC)c1OC (stereo partly specified) | > 100 µM (inactive) | 43.1 µM (inactive) | 91.6 µM (inactive) | 45.5 µM (inactive) | 81.7 µM (inactive) | > 100 µM (inactive) | 47.1 µM (inactive) | > 100 µM (inactive) | 43.4 µM (inactive) | 8.97 µM (inactive) | > 100 µM (inactive) | > 100 µM (inactive) | > 100 µM (inactive) | 52.6 µM (inactive) | 66.7 µM (inactive) | > 100 µM (inactive) | – | –
CCOC(=O)C1=C(NC(C)(C)C)OC/C1=N\NC(=O)Cc1ccccc1 | > 100 µM (inactive) | > 100 µM (inactive) | > 100 µM (inactive) | > 100 µM (inactive) | > 100 µM (inactive) | > 100 µM (inactive) | > 100 µM (inactive) | > 100 µM (inactive) | > 100 µM (inactive) | > 100 µM (inactive) | > 100 µM (inactive) | > 100 µM (inactive) | > 100 µM (inactive) | > 100 µM (inactive) | > 100 µM (inactive) | > 100 µM (inactive) | > 100 µM (inactive) | > 100 µM (inactive)
C/C(COc1ccccc1)=N\NC(N)=S | > 100 µM (inactive) | 44.5 µM (inactive) | > 100 µM (inactive) | > 100 µM (inactive) | > 100 µM (inactive) | > 100 µM (inactive) | > 100 µM (inactive) | > 100 µM (inactive) | > 100 µM (inactive) | > 100 µM (inactive) | 90.4 µM (inactive) | > 100 µM (inactive) | > 100 µM (inactive) | 53.5 µM (inactive) | > 100 µM (inactive) | > 100 µM (inactive) | > 100 µM (inactive) | > 100 µM (inactive)
CCOC(=O)CC(NCc1ccc(/N=C/c2nc3ccc(C(F)(F)F)cc3nc2-c2ccccc2)cc1)C(=O)OCC (stereo unspecified) | > 54.7 µM (inactive) | > 100 µM (inactive) | > 100 µM (inactive) | > 100 µM (inactive) | > 100 µM (inactive) | > 80.7 µM (inactive) | > 69.5 µM (inactive) | 29 µM (inactive) | > 57.3 µM (inactive) | > 100 µM (inactive) | 17.9 µM (inactive) | > 100 µM (inactive) | 15.2 µM (inactive) | 14.2 µM (inactive) | > 55.5 µM (inactive) | > 100 µM (inactive) | > 100 µM (inactive) | 23.3 µM (inactive)
C[N+](C)(C)CC(=O)N/N=C(\C(=O)NC1=C(Cl)C(=O)c2ccccc2C1=O)C(C#N)c1csc(-c2ccc([N+](=O)[O-])cc2)n1 (stereo unspecified) | > 100 µM (inactive) | > 100 µM (inactive) | 80.5 µM (inactive) | > 100 µM (inactive) | > 100 µM (inactive) | > 100 µM (inactive) | 48.2 µM (inactive) | > 100 µM (inactive) | > 100 µM (inactive) | > 100 µM (inactive) | > 100 µM (inactive) | > 100 µM (inactive) | > 100 µM (inactive) | > 100 µM (inactive) | > 100 µM (inactive) | > 100 µM (inactive) | > 100 µM (inactive) | > 100 µM (inactive)
COC(=O)C(C(=O)C(=O)Nc1cccc([N+](=O)[O-])c1)c1nc2ccc([N+](=O)[O-])cc2nc1O (stereo unspecified) | > 100 µM (inactive) | > 100 µM (inactive) | > 100 µM (inactive) | > 100 µM (inactive) | > 100 µM (inactive) | > 100 µM (inactive) | > 100 µM (inactive) | > 100 µM (inactive) | > 100 µM (inactive) | – | > 100 µM (inactive) | > 100 µM (inactive) | > 100 µM (inactive) | > 100 µM (inactive) | > 100 µM (inactive) | > 100 µM (inactive) | > 100 µM (inactive) | > 100 µM (inactive)
CC(=O)OC1C(=O)C(O)C(C)OC1O[C@@H]1C[C@@]2(C)[C@@H]3CC=C4[C@@H](C[C@H](O)C(=O)C4(C)C)[C@]3(C)C(=O)C[C@]2(C)[C@H]1[C@@](C)(O)C(=O)/C=C/C(C)(C)O (stereo partly specified) | 1.39 µM (inactive) | 0.881 µM (active) | 1.52 µM (inactive) | 3.51 µM (inactive) | 6.28 µM (inactive) | 0.918 µM (active) | 3.86 µM (inactive) | 3.06 µM (inactive) | 6 µM (inactive) | 1.28 µM (inactive) | 0.675 µM (active) | 1.12 µM (inactive) | 0.845 µM (active) | 0.297 µM (active) | 2.2 µM (inactive) | 3.18 µM (inactive) | 0.91 µM (active) | 1.85 µM (inactive)
Cc1ccc(C(O)/C(=N/N)c2nc3ccc([N+](=O)[O-])cc3nc2O)cc1 (stereo unspecified) | 57.5 µM (inactive) | 67 µM (inactive) | 58.7 µM (inactive) | > 100 µM (inactive) | > 100 µM (inactive) | > 100 µM (inactive) | – | > 100 µM (inactive) | > 100 µM (inactive) | > 100 µM (inactive) | – | > 100 µM (inactive) | > 100 µM (inactive) | 95.5 µM (inactive) | > 100 µM (inactive) | 45.4 µM (inactive) | > 100 µM (inactive) | > 100 µM (inactive)
COC(=O)C(=O)C(C(=O)C(=O)Nc1cccc(C(C)=O)c1)c1nc2ccc([N+](=O)[O-])cc2nc1O (stereo unspecified) | > 100 µM (inactive) | > 100 µM (inactive) | > 100 µM (inactive) | > 100 µM (inactive) | > 100 µM (inactive) | > 100 µM (inactive) | > 100 µM (inactive) | > 100 µM (inactive) | > 100 µM (inactive) | > 100 µM (inactive) | > 100 µM (inactive) | > 100 µM (inactive) | > 100 µM (inactive) | > 100 µM (inactive) | > 100 µM (inactive) | > 100 µM (inactive) | > 100 µM (inactive) | > 100 µM (inactive)
Clc1ccc(CNc2nc3ccccc3nc2-c2cccs2)c(Cl)c1 | 49.3 µM (inactive) | > 100 µM (inactive) | 31.2 µM (inactive) | 27.9 µM (inactive) | > 100 µM (inactive) | – | > 100 µM (inactive) | – | 68.5 µM (inactive) | 13.1 µM (inactive) | > 100 µM (inactive) | > 100 µM (inactive) | 73.8 µM (inactive) | 26.7 µM (inactive) | 49 µM (inactive) | > 100 µM (inactive) | > 100 µM (inactive) | > 100 µM (inactive)
C=C1C(=O)OC2/C=C(\C)C(O)/C=C\C(C)(O)CC(OC(=O)/C(C)=C/C)C12 (stereo unspecified) | 13.2 µM (inactive) | 15.3 µM (inactive) | 11.7 µM (inactive) | 4.29 µM (inactive) | 22.1 µM (inactive) | 17.3 µM (inactive) | 30.1 µM (inactive) | > 100 µM (inactive) | 39.8 µM (inactive) | 29.2 µM (inactive) | 14.1 µM (inactive) | 17.3 µM (inactive) | 18 µM (inactive) | 29.9 µM (inactive) | 16.3 µM (inactive) | > 70.1 µM (inactive) | 27.2 µM (inactive) | > 48.4 µM (inactive)
